Measurements as given in patent EP0181471A1, “Pyrazole derivatives, process for their preparation and medicaments containing them” (LUDWIG HEUMANN & CO GMBH, priority 1984, dated 1986).

Tested on: Histamin-H2-Rezeptoren
Experiment: Inhibition of histamine-stimulated gastric acid secretion in the conscious fistula cat
Format: in vivo
Details: wache Fistelkatze; Stimulator: Histamin; i.V.
Text: Weiterhin kann die H2-antagonistische Wirkung an wachen Heidennain-Pouch-Hunden nach der Methode von Black et al., "Nature" 236, 385 (1972) und an wachen Fistelkatzen gezeigt werden.

CN=C(NC#N)NCCSCc1nc[nH]c1C [CIMETIDIN, Cimetidin] was tested, and the ID50 was 1,4 umol/k^g.
